Laboratory results from ChEMBL document CHEMBL1157539, “Thousands of chemical starting points for antimalarial lead identification” (Nature, 2010).
Counter-ions that a name gives are not always drawn. Non-standard residues stand in square brackets, D forms with d. Residues, ends and D or L forms follow the SMILES beside them. *: point of attachment. Butanoyl(4-(4-HOPh)) = O=C(CCCc1ccc(O)cc1)*; Boc = CC(C)(C)OC(=O)*

Test system: Plasmodium falciparum
Assay: GSK_TCMDC: Inhibition of Plasmodium falciparum 3D7 in whole erythrocytes, using parasite LDH activity as an index of growth.
Assay type: functional, organism-based

Row | Structure (SMILES) | XC50 (Plasmodium falciparum, 3D7) | XC50
1 | O=[N+]([O-])c1ccc(Nc2nc(N/N=C/c3ccc(-c4ccc([N+](=O)[O-])cc4)o3)nc(Nc3ccccc3)n2)cc1 | 640 nM | 
2 | COC(=O)CCCCOc1cc(Cc2cnc(N)nc2N)cc(OC)c1OC | 173 nM | 
3 | O=C(Cn1c(CCc2cccc(F)c2F)nc(=O)c2ccccc21)N(Cc1ccc(-c2ccc(C(F)(F)F)cc2)cc1)C1CCN(C2CCOCC2)CC1 | 745 nM | 
4 | O=C(Nc1ccc(CN2CCOCC2)cc1)c1ccc(-c2ccc(Cl)cc2)o1 | 862 nM | 
5 | CC(C)C1C(=O)N(S(C)(=O)=O)C2CCN(C(=O)c3ccc(CN4CCCCC4)c([N+](=O)[O-])c3)C12 (configuration not stated) | 620 nM | 
6 | CS(=O)(=O)c1cccc(-c2cnc3[nH]cc(-c4ccc(C(=O)O)cc4)c3c2)c1 | 335 nM | 
7 | COc1ccc(Cl)cc1N1CCN(CCCNC(=O)c2ccc(-c3nc4cc(Cl)c(Cl)cc4[nH]3)c(C)c2)CC1 | 866 nM | 
8 | COc1ccc2[nH]ccc(=NN=Cc3cccnc3)c2c1 | 501 nM | 
9 | O=C(Nc1ccc(-c2cncc(NCCCN3CCCC3)c2)cc1)c1ccccc1 | 939 nM | 
10 | COC(=O)CC[C@H](NC(=O)[C@H](C)NC(=O)OC(C)(C)C)C(=O)OC (Boc-Ala-Glu(OMe)-OMe) | 819 nM | 
11 | O=C(NCC(=O)N1CCC[C@H]1C(=O)O)[C@@H](Cc1ccccc1)NC(=O)[C@@H]1CCCN1C(=O)CCCc1ccc(O)cc1 ({Butanoyl(4-(4-HOPh))}-P[dF]GP-OH) | 1050 nM | 
12 | NC12CC3CC(CC(C3)C1)C2 [AMANTADINE] | 164 nM | 
13 | COc1ccc(C[C@H]2NC[C@H](O)[C@H]2OC(C)=O)cc1 [ANISOMYCIN] | 138 nM | 
14 | CO/C=C(/C(=O)OC)c1ccccc1Oc1cc(Oc2ccccc2C#N)ncn1 [AZOXYSTROBIN] | 40.5 nM | 
15 | O=P(O)(O)Oc1c(Br)cc(Br)cc1-c1cc(Br)cc(Br)c1O [BROMOFENOFOS] | 173 nM | 
16 | CC1=CC(=O)[C@@H](O)[C@]2(C)[C@H]3[C@@]4(O)OC[C@@]35[C@@H](C[C@@H]12)OC(=O)C[C@H]5[C@@H](C)[C@H]4O [CHAPARRINONE] | 347 nM | 
17 | CCN(CC)CCCC(C)Nc1ccnc2cc(Cl)ccc12 (configuration not stated) [CHLOROQUINE PHOSPHATE] | 178 nM | 
18 | C=C[C@H]1CN2CC[C@H]1C[C@H]2[C@H](O)c1ccnc2ccccc12 [CINCHONIDINE] | 172 nM | 
19 | C=C[C@H]1CN2CC[C@H]1C[C@@H]2[C@@H](O)c1ccnc2ccccc12 [CINCHONINE] | 766 nM | 
20 | C[C@@H]1C[C@@H]([C@H](O)CC2CC(=O)NC(=O)C2)C(=O)[C@@H](C)C1 [CYCLOHEXIMIDE] | 527 nM | 

Row | Structure (SMILES) | XC50 (Plasmodium falciparum, 3D7) | XC50
21 | O=c1ccc2ccc(O)c(O)c2o1 [DAPHNETIN] | 32.2 nM | 
22 | CCC1=C(CC2NCCc3cc(OC)c(OC)cc32)CC2c3cc(OC)c(OC)cc3CCN2C1 (configuration not stated) [DIHYDROEMETINE] | 312 nM | 
23 | CCC(Cc1cnc2nc(N)nc(N)c2n1)c1ccc(C(=O)N[C@@H](CCC(=O)O)C(=O)O)cc1 (some centres not stated) [EDATREXATE] | 36.7 nM | 
24 | Cc1c2ccncc2c(C)c2c1[nH]c1ccccc12 [ELLIPTECINE] | 796 nM | 
25 | CC[C@H]1CN2CCc3cc(OC)c(OC)cc3[C@@H]2C[C@@H]1C[C@H]1NCCc2cc(OC)c(OC)cc21 [EMETINE] | 214 nM | 
26 | CCOc1cc(Cc2cnc(N)nc2N)cc(OCC)c1-n1cccc1 [EPIROPRIM] | 761 nM | 
27 | CCOc1ccc2nccc([C@@H](O)[C@@H]3C[C@@H]4CCN3C[C@@H]4CC)c2c1 [ETHYLHYDROCUPREINE HYDROCHLORIDE] |  | 112 nM
28 | CCOc1ccc2nccc([C@@H](O)[C@@H]3C[C@@H]4CCN3C[C@@H]4CC)c2c1 [ETHYLHYDROCUPREINE] |  | 612 nM
29 | CN(C)c1cc2c(Nc3ccc4nc(Cc5ccccc5)[nH]c4c3)ncnc2cn1 [GW301888X] | 1140 nM | 
30 | Cc1ccc(O)cc1Nc1ccnc2cc(-c3ccccn3)ccc12 [GW440139A] | 761 nM | 
31 | CS(=O)(=O)CCNCc1ccc(-c2ccc3ncnc(Nc4ccc(OCc5ccccc5)c(Cl)c4)c3c2)o1 [GW574783B] | 557 nM | 
32 | Nc1ncnc2occ(-c3ccc(NC(=O)Nc4cc(C(F)(F)F)ccc4F)cc3)c12 [GW770249A] | 1720 nM | 
33 | CCS(=O)(=O)Nc1ccc2c(c1)/C(=C(/Nc1ccc(CN3CCCCC3)cc1)c1ccccc1)C(=O)N2 [HESPERADIN] | 56.5 nM | 
34 | COc1c(O)cc2oc(-c3ccc(O)cc3)cc(=O)c2c1O [HISPIDULIN] | 771 nM | 
35 | CCN(CCO)CCCC(C)Nc1ccnc2cc(Cl)ccc12 (configuration not stated) [HYDROXYCHLOROQUINE SULFATE] | 762 nM | 
36 | O=C(Nc1cc(C(F)(F)F)cc(C(F)(F)F)c1)c1cc(Cl)ccc1O [IMD-0354] | 1310 nM | 
37 | O=C(Nc1cccc(C2=NCCN2)c1)Nc1cccc(C2=NCCN2)c1 [IMIDOCARB] | 419 nM | 
38 | c1ccc([C@H]2CN3CCSC3=N2)cc1 [LEVAMISOLE] | 622 nM | 
39 | CN(Cc1cnc2nc(N)nc(N)c2n1)c1ccc(C(=O)N[C@@H](CCC(=O)O)C(=O)O)cc1 [METHOTREXATE] | 100 nM | 178 nM
40 | Cc1nc(N)nc(N)c1-c1ccc(Cl)c(Cl)c1 [METOPRINE] | 79.6 nM | 

Row | Structure (SMILES) | XC50 (Plasmodium falciparum, 3D7) | XC50
41 | CC(C)=CCc1c(-c2ccc(O)cc2O)oc2c3c(cc(O)c2c1=O)OC(C)(C)C=C3 [MORUSIN] | 977 nM | 
42 | CCCCCCCC/C=C\CCCCCCCC(=O)NCc1ccc(O)c(OC)c1 [OLVANIL] | 402 nM | 
43 | Cc1nc2ccc3ccc(CNc4ccc5c(c4)CN([C@@H](CCC(=O)O)C(=O)O)C5=O)cc3c2c(=O)[nH]1 [OSI-7904] | 164 nM | 
44 | CCCCc1ccc2[nH]c(NC(=O)OC)nc2c1 [PARBENDAZOLE] | 683 nM | 
45 | CCN(CC)CCOc1ccc(Nc2ncc3cc(-c4c(Cl)cccc4Cl)c(=O)n(C)c3n2)cc1 [PD-0166285] | 1180 nM | 
46 | N=C(N)c1ccc(OCCCCCOc2ccc(C(=N)N)cc2)cc1 [PENTAMIDINE HYDROCHLORIDE] | 140 nM | 
47 | Cc1[nH]c(/C=C2\C(=O)Nc3ccc(S(=O)(=O)Cc4c(Cl)cccc4Cl)cc32)c(C)c1C(=O)N1CCC[C@@H]1CN1CCCC1 [PHA-665752] | 720 nM | 
48 | COc1ccc(OC)c(Cc2cnc3nc(N)nc(N)c3c2C)c1 [PIRITREXIM] | 10.2 nM | 
49 | COc1cc2c(cc1O)[C@@H]1[C@H](O)[C@@H](O)C=C3CCN(C2)[C@H]31 [PSEUDOLYCORINE] | 991 nM | 
50 | COc1ccc(C[C@H](N)C(=O)N[C@H]2[C@@H](O)[C@H](n3cnc4c(N(C)C)ncnc43)O[C@@H]2CO)cc1 [PUROMYCIN] |  | 174 nM
51 | CCc1nc(N)nc(N)c1-c1ccc(Cl)cc1 [PYRIMETHAMINE] | 59.5 nM | 31.8 nM
52 | C=C[C@H]1CN2CC[C@H]1C[C@@H]2[C@@H](O)c1ccnc2ccc(OC)cc12 [QUINIDINE] | 118 nM | 
53 | C=C[C@H]1CN2CC[C@H]1C[C@H]2[C@H](O)c1ccnc2ccc(OC)cc12 [QUININE HYDROCHLORIDE] | 145 nM | 95.2 nM
54 | c1ccc(-c2cccc(-c3ccccn3)n2)nc1 [TERPYRIDINE] | 901 nM | 
55 | c1ccc(CC2=NCCN2)cc1 [TOLAZOLINE HYDROCHLORIDE] | 188 nM | 
56 | CN1CCC(COC(=O)C(O)(c2ccccc2)c2ccccc2)C1 (configuration not stated) [TRICLAZATE] | 997 nM | 
57 | COc1cc(Cc2cnc(N)nc2N)cc(OC)c1OC [TRIMETHOPRIM] | 755 nM | 
58 | O=C1c2ccccc2-n2c1nc1ccccc1c2=O [TRYPTANTHRIN] | 856 nM | 
59 | FC(F)c1nc2ccccc2n1-c1nc(N2CCOCC2)nc(N2CCOCC2)n1 [ZSTK-474] | 761 nM | 
